We go through 2 molecules from patent US8754109B2 (Intermune, Inc., priority 2010, dated 2014).

The nature of series [1]: Phase 1 open-label study: impact of CYP1A2 inhibition (fluvoxamine) and induction (smoking) on pirfenidone pharmacokinetics. The series is classed as in vivo, human. As to conditions: for effect of fluvoxamine co-administration on AUC0-∞: Day 11 vs Day 1, paired t-test; for Ratio of Day 11 AUC0-∞ to Day 1 AUC0-∞, Mean (SD) / Ratio of Day 11 AUC0-∞ to Day 1 AUC0-∞, Median (25th-75th): Day 11 with fluvoxamine; for AUC0-∞ Mean (SD) / AUC0-∞ Median (25th-75th): single 801-mg dose of pirfenidone, healthy subjects n = 51, plasma.
Protocol: Fifty-four subjects were to be enrolled in two groups, consisting of 27 subjects who were smokers (Group 1) and 27 subjects who were nonsmokers (Group 2). Each group (smokers and nonsmokers) was to include a minimum of nine females and nine males, and attempts were to be made to enroll equal numbers of each sex in each group.
All pharmacokinetic (PK) analyses were conducted using population PK methods using Monte-Carlo parametric expectation maximization as implemented in the open-source software program S ADAPT 1.5.6 (Bauer et al., AAPS Journal 9 (1):E60-83, 2007). The structural model for the analysis was obtained from a preliminary population PK analysis.
If other subject characteristics (such as body size or age) were also associated with the ratio of AUC0-∞ on Day 11 to that on Day 1, the significance of these covariates was also tested.

The conditions of series [2]: pirfenidone therapy, oral; cited from earlier work.
Series [3] relates to multiple other CYPs (1A1, 2A6, 2B6, 2C8, 2C9, 2C18, 2C19, 2D6, 2E1, 2J2, 3A4, 3A5, 4A11, and 4F2). The series is described as follows: in vitro experiments on pirfenidone metabolism by CYP isoforms. The series is classed as in vitro ADME. The settings on record: each isoform.
The next series addresses CYP1A2 (Homo sapiens, UniProt P05177). The series is described as above. The series is classed as in vitro ADME.

CYP1A2, sequence (P05177 whole entry): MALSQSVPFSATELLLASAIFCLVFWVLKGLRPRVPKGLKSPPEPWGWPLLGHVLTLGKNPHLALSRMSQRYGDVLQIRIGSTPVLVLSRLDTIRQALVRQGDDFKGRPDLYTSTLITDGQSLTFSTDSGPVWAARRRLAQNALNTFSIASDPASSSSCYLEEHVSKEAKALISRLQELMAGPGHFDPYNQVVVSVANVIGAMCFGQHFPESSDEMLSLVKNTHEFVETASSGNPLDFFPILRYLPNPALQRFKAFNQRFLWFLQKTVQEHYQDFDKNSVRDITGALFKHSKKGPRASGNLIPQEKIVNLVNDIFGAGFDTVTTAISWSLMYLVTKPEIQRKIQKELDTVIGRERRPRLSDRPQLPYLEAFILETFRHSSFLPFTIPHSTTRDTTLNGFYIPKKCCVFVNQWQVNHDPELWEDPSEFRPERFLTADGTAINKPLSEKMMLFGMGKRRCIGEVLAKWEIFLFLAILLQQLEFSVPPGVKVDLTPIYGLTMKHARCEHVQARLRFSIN

For the molecule `O=C(O)c1ccc(=O)n(-c2ccccc2)c1` [5-Carboxy-Pirfenidone, 5-carboxy-pirfenidone], the “ratio of Cmax on Day 11 to the Cmax on Day 1, mean (95% CI)” value in series [1] (Day 11 after fluvoxamine vs Day 1, all subjects) is reported as 0.369 (0.349-0.390). The “effect of fluvoxamine co-administration on AUC0-∞” value in series [1] was “not a statistically significant effect”. Also, the “Ratio of Day 11 AUC0-∞ to Day 1 AUC0-∞, Mean (SD)” value in series [1] (Nonsmokers (N 25)) is 1.05 (0.114); in series [1] (Smokers (N 26)), 1.12 (0.0951). The “Ratio of Day 11 AUC0-∞ to Day 1 AUC0-∞, Median (25th-75th)” value in series [1] (Nonsmokers (N 25)) is recorded as 1.03 (0.978-1.11); in series [1] (Smokers (N 26)) it was 1.13 (1.04-1.19). For the same molecule, the “AUC0-∞ Mean (SD)” value is 29.3 (8.22) mg · hr/L in series [1] (Study Day 1: Pre-Fluvoxamine) and 31.7 (8.96) mg · hr/L in series [1] (Study Day 11: Post-Fluvoxamine). Also, the “AUC0-∞ Median (25th-75th)” value in series [1] (Study Day 1: Pre-Fluvoxamine) is recorded as 26.9 (22.0-33.7) mg · hr/L; in series [1] (Study Day 11: Post-Fluvoxamine), 29.4 (25.4-36.5) mg · hr/L.

Take `Cc1ccc(=O)n(-c2ccccc2)c1` [Pirfenidone, 5-methyl-1-phenyl-2-(1H)-pyridone, reference compound]: the “incidence of most common adverse reactions (nausea, rash, dyspepsia, dizziness, vomiting, photosensitivity reaction, anorexia)” value in series [2] is above 10%. In addition, the “drop in AUC0-∞ in smokers after accounting for differences in BSA” value in series [1] (Day 1 estimates, AUC0-∞ normalized to body surface area, multiple linear regression, smokers vs nonsmokers) is on record as around 50%. In addition, in series [1], the “effect of fluvoxamine co-administration on AUC0-∞” value is reported as “significant increase”. The “increase in Cmax after administration of fluvoxamine, on average” value in series [1] (after administration of fluvoxamine) is on record as “two-fold”. In addition, the “exposure (AUC0-∞) times higher after fluvoxamine, on average” value in series [1] (after ten days of dosing with fluvoxamine) is around 6 times. For the same molecule, the “decrease in pirfenidone exposure (AUC0-∞) in patients that concomitantly smoke, on average” value in series [1] (compared to patients that do not smoke) is listed as “about 50%”. Also, the “exposure (AUC0-∞) in patients who smoke as % of exposure in patients that didn't smoke, on average” value in series [1] (smokers vs nonsmokers) is on record as “about 50%”. For the same molecule, the “share of pirfenidone metabolism by each of the other CYPs” value in series [3] is reported as below 13%. Also, the “share of pirfenidone metabolism by CYP1A2” value on CYP1A2 was “approx. 48%”.
